Results as given in paper PMC8828969, “Arylamine N-Acetyltransferase 1 Activity is Regulated by the Protein Acetylation Status” (Frontiers in Pharmacology, 2022).
Read-outs that look alike come from different tables or passages of the source.

Columns and labels:
[1] = system: HDAC; settings: MDA-MB-231 cells, vs vehicle control; for lowest concentration that significantly decreased HDAC deacetylase activity: 48 h
Procedure: (§1) The next day, cells were treated with increasing concentrations, (0–100 µM) of the inhibitor for 48 h. Following incubation, the enzymatic activity of Sirtuin and HDAC proteins was quantified using the Sirtuin Activity kit (MilliporeSigma, St. Louis, MO, United States), according to manufacturer’s instructions. […] Supernatant was recovered ant kept on ice. Samples were normalized to the lowest protein concentration sample using the Bradford protein assay (Bio-Rad, Hercules, CA, United States). Then, 20 µL of diluted cell lysate were transferred into a 96 well plate, the activity reaction mix was prepared as recommended, and the reaction was incubated for 15 min at 37°C.

[2] = system: NAT1b transcript; assay: NAT1b mRNA quantification by qRT-PCR in MDA-MB-231 cells; assay type: cell-based, human; settings: 48 h
Procedure: (§2) NAT1 mRNA levels were measured as described previously ([Millner et al., 2012]). Primers were designed to recognize only NAT1b expression. Briefly, total RNA was isolated cells lines using the RNeasy Mini kit (Qiagen, Hilden, GER) followed by removal of contaminating DNA by treatment with Turbo DNA-free (Ambion, Austin, TX, United States). cDNA was synthetized using the High-Capacity Reverse transcriptase kit (Life Technologies, Carlsbad, CA, United States) using 1 µg of total RNA in a 20 µL reaction following manufacturer’s instructions.
(§3) MDA-MB-231 or ZR-75-1 cells were plated in 12-well plates, at a density of 2 × 10^5 cells/well and allowed to attach to the plate overnight. […] After 48 h of drug treatment, plates were recovered and the cells were harvested for NAT1 activity assays, NAT1 mRNA and protein expression quantification as described above. For the siRNA transfection experiments, after 72 h of transfection, cells were harvested and processed as described above for the cells treated with inhibitors.

[3] = system: NAT1b transcript; assay: NAT1b mRNA quantification by qRT-PCR in ZR-75-1 cells; assay type: cell-based, human; settings: 48 h
Procedure: as §2, §3

[4] = system: NAT1; assay: NAT1 catalytic activity (PABA N-acetylation, HPLC) in lysate of treated MDA-MB-231 cells; assay type: cell-based, human; settings: for lowest concentration that significantly increased NAT1 N-acetylation of PABA / lowest concentration that significantly decreased NAT1 catalytic activity: MDA-MB-231 cells, 48 h; for Ki: MDA-MB-231 cells treated 48 h, read-out: Ki, decrease of NAT1 catalytic activity (PABA N-acetylation)
Procedure: (§4) In vitro NAT1 enzymatic activity was quantified towards p-aminobenzoic acid (PABA). N-acetyl-PABA was quantified by High Performance Liquid Chromatography (HPLC) as previously described ([Hein et al., 2006]; [Stepp et al., 2018]). Briefly, cells were scaped from the plate and washed in ice-cold Phosphate Buffered Saline (PBS) and lysed in 20 mM sodium phosphate pH 7.4, 1 mM ethylenediaminetetraacetic acid (EDTA), 0.2% triton X-100, 1 mM dithiothreitol (DTT), 100 µM phenylmethanesulfonyl fluoride (PMSF), 1 μg/ml aprotinin, and 2 µM pepstatin A (MilliporeSigma, St. Louis, MO, United States). Cell lysate was centrifuged at 15,000 × g for 10 min, supernatant was recovered, and protein concentration was quantified as mentioned before. NAT1 enzymatic assay reactions containing 50 µL of suitable cell lysate, 300 µM PABA, and AcCoA (1 mM), were incubated at 37°C for 10 min. Reactions were terminated by the addition of 10 µL of 1 M acetic acid, then proteins were precipitated by centrifugation (15,000 × g for 20 min in the cold room) and supernatant was transferred to HPLC vials and injected onto a LiChrospher 100 RP-18 (125 mm × 4 mm; 5 µm) reverse phase column. Reactants and products were eluted with an Agilent 1260 Infinity II system (Agilent Technologies, Santa Clara, CA, United States). Separation of N-acetyl-PABA was achieved using a gradient of 96:4 of 20 mM sodium perchlorate pH 2.5: acetonitrile (ACN) to 88:12 20 mM sodium perchlorate:ACN over 3 min. Absorbance was recorded at 280 nm. Four independent measurements were performed in duplicate for each cell condition and cell line.
as §3

[5] = system: NAT1; assay: NAT1 catalytic activity (PABA N-acetylation, HPLC) in lysate of treated ZR-75-1 cells; assay type: cell-based, human; settings: for lowest concentration that significantly upregulated NAT1 catalytic activity / lowest concentration that significantly decreased NAT1 catalytic activity: ZR-75-1 cells, 48 h; for Ki: ZR-75-1 cells treated 48 h, read-out: Ki, decrease of NAT1 catalytic activity (PABA N-acetylation)
Procedure: as §4, §3

[6] = system: NAT1; assay: NAT1 acetylation status (acetyl-lysine immunoprecipitation, AcNAT1/NAT1) in MDA-MB-231 cells; assay type: cell-based, human; settings: 48 h, vs vehicle
Procedure: (§5) In order to assess the acetylation status of NAT1 protein, MDA-MB-231(6 × 10^5) and ZR-75-1 (3 × 10^6) cells were seeded onto 100 mm cell culture dishes and allowed to attach overnight. […] After 48-h drug treatment or 72-h siRNA transfection, cells were collected and lysed following the protocol of Signal-Seeker Acetyl-Lysine Detection kit (Citoskeleton, Denver, CO, United States). Briefly, after the incubation period concluded, cells were washed twice with PBS and lysed in ice-cold lysis buffer, 20 mM Tris-HCl (pH 7.4), 5 mM EDTA, 150 mM NaCl, 0.5% Triton X-100, 10 mM sodium butyrate and protease/phosphatase inhibitors cocktail. Cell lysates were incubated on ice for 20 min and isolated by centrifugation at 16,000 × g for 20 min. Supernatants were recovered and protein concentration was measured as described before. 150 µg of lysate was used for the IP; 1/10 of the sample was kept as input control. Thereafter, Acetyl Lysine Affinity Beads were added to the samples and incubated at 4°C for 2 h. Beads were washed three times with the provided wash buffer and the immunoprecipitated proteins were eluted and denatured with 2 × Laemmli buffer and boiled for 5 min. Protein samples were then separated by SDS-PAGE for 1 h at 150 V. Proteins were then transferred to PVDF membranes (Bio-Rad, Hercules, CA, United States) for 2 h at 100 V and blocked for 30 min in 1×fish gelatin (Biotium Inc., Fremont, CA, United States. After blocking, membranes were incubated with rabbit monoclonal anti-NAT1 antibody (ab109114, Abcam, Cambridge, United Kingdom) and mouse monoclonal anti-β-actin, as endogenous control (A2228, Sigma-Aldrich, St. Louis, MO, United States) overnight at 4°C with gentle agitation. The next day, the membranes were washed with TBST and incubated with secondary antibodies IRDye® 800 CW goat anti-rabbit and 680RD goat anti-mouse (LI-COR Biosciences, Lincoln, NE, United States) at room temperature for 1 hour. Finally, plates were washed with TBST and scanned using an Odyssey imaging system (LI-COR Biosciences, Lincoln, NE, United States). After detection of NAT1, the membranes were re-probed for acetyl-lysine-HRP detection using the antibody provided in the kit. Chemiluminescent detection was captured using a Fotodyne imaging system (Fotodyne Inc., Hartland, WI, United States). Densitometric analysis on the immunoblots was performed using ImageJ ([Schneider et al., 2012]) software or IMAGE STUDIO Lite software (LI-COR Biosciences, Lincoln, NE, United States), which enables quantitative analysis of blotting signals. NAT1 and acetyl-lysine levels were normalized to β-actin.

[7] = system: NAT1; assay: NAT1 acetylation status (acetyl-lysine immunoprecipitation, AcNAT1/NAT1) in ZR-75-1 cells; assay type: cell-based, human; settings: 48 h; for NAT1 acetylation status, fold increase: vs vehicle control; for acetylation of NAT1 lysine residues, effect in words: vs vehicle
Procedure: as §5

[8] = system: KDAC proteins; assay: KDAC (Sirtuin / HDAC) activity, both breast cancer cell lines (discussion summary); assay type: cell-based, human; settings: MDA-MB-231 and ZR-75-1 cell lines
[9] = system: HDAC; settings: ZR-75-1 cells, vs vehicle control
[10] = system: NAT1b transcript; parameters: method as in Paterson et al., 2011; settings: after treatment with TSA; ref Paterson et al., 2011; cited from earlier work
[11] = system: NAT1; parameters: method as in Paterson et al., 2011; settings: after treatment with TSA; ref Paterson et al., 2011; cited from earlier work
[12] = system: Sirtuin; assay: Sirtuin activity in inhibitor-treated cells (Sirtuin Activity kit, lysate fluorescence); assay type: cell-based, human
Procedure: as §1

[13] = read-out: IC50, HDAC deacetylase activity, 48 h treatment
[14] = ZR-75-1 cells, 100 µM, vs vehicle
[15] = MDA-MB-231 cells, 48 h, vs vehicle control
[16] = MDA-MB-231 cells, 48 h treatment, vs vehicle control; read-out: IC50, Sirtuin deacetylase activity
[17] = ZR-75-1 cells, 48 h, vs vehicle control
[18] = ZR-75-1 cells, 48 h treatment, vs vehicle control; read-out: IC50, Sirtuin deacetylase activity

Row | Compound | lowest concentration that significantly decreased HDAC deacetylase activity [1] | lowest concentration that significantly increased NAT1 N-acetylation of PABA [4] | lowest concentration that significantly upregulated NAT1 catalytic activity [5] | dose producing inhibition of KDAC enzymatic activity [8] | lowest concentration that significantly decreased Sirtuin activity [12, 15] | IC50 [12, 16] | lowest concentration that significantly inhibited Sirtuin deacetylase activity [12, 17] | IC50 [12, 18] | NAT1b transcript expression, effect in words ([2]; 100 µM, vs vehicle) | Ki [4] | lowest concentration that significantly decreased NAT1 catalytic activity [4] | Ki [5] | lowest concentration that significantly decreased NAT1 catalytic activity [5] | acetylated lysine residues of NAT1, effect in words ([6]; 100 µM) | acetylation of NAT1 lysine residues, effect in words ([7]; 100 µM) | NAT1b transcript expression, effect in words [3, 14] | other results
1 | CC(/C=C/C(=O)NO)=C\[C@@H](C)C(=O)c1ccc(N(C)C)cc1 [TSA, Trichostatin A] | 1 µM | 1 µM | 1 µM | 0.1 µM |  |  |  |  |  |  |  |  |  |  |  |  | IC50 [1, 13]: 13.5 µM; NAT1b transcription, fold increase ([2]; 0.01 µM): 3 fold; NAT1b transcript expression, fold increase ([2]; 10 µM, vs vehicle): over 10 fold; lowest dose with significant increase of NAT1b transcription [2]: 0.01 µM; NAT1b message expression, fold increase ([3]; ZR-75-1 cells, 1 µM): 6 fold; NAT1b transcript expression, fold increase [3, 14]: 9 fold; NAT1b transcript expression, effect in words ([3]; ZR-75-1 cells, 1, 10 and 100 µM, vs vehicle): more robust induction; lowest dose with significant upregulation of NAT1b message expression ([3]; ZR-75-1 cells): 1 µM; NAT1 acetylation, fold increase ([6]; 10 µM): 1.6 fold; NAT1 acetylation, fold increase ([6]; 100 µM): 2.1 fold; NAT1 acetylation status, fold increase ([7]; 10 µM): 1.8 fold; NAT1 acetylation status, fold increase ([7]; 100 µM): 2.4 fold; lowest concentration that significantly inhibited HDAC enzymatic activity ([9]; 48 h): 0.1 µM; IC50 [9, 13]: 6.4 µM; NAT1b transcription [10]: upregulation; NAT1 catalytic activity [11]: increase
2 | O=C(CCCCCCC(=O)Nc1ccccc1)NO [SAHA, Vorinostat] | 10 µM | 10 µM | 10 µM |  |  |  |  |  |  |  |  |  |  |  |  |  | NAT1b transcript expression, effect in words ([2]; 10 and 100 µM, vs vehicle): more NAT1b transcript expression
3 | N#CC(=Cc1ccc(-c2cc(Cl)ccc2Cl)o1)C(=O)Nc1cccc2ncccc12 [AGK2, 2-cyano-3-[5-(2,5-dichlorophenyl)-2-furanyl]-N-5-quinolinyl-2-propenamide] |  |  |  | 10 µM | 10 µM | 50.1 µM | 10 µM | 27.6 µM | significantly decreased | 10.8 µM | 1 µM | 0.55 µM | 1 µM | increased | increased |  | 
4 | CC(NC(=O)c1ccccc1N=Cc1c(O)ccc2ccccc12)c1ccccc1 (centres unmarked) [Sirtinol, 2-[[(2-hydroxy-1-naphthalenyl)methylene]amino]-N-(1-phenylethyl)-benzamide] |  |  |  | 10 µM | 100 µM | 61.7 µM | 10 µM | 35.8 µM | significantly decreased | 21.9 µM | 1 µM | 0.02 µM | 0.1 µM | increased | increased | significant decrease | acetylation of NAT1 lysine residues, effect in words ([7]; 10 µM): increased
5 | NC(=O)C1CCCc2c1[nH]c1ccc(Cl)cc21 (centres unmarked) [EX527, 6-chloro-2,3,4,9-tetrahydro-1H-carbazole-1-carboxamide] |  |  |  | 1 µM | 1 µM |  | 1 µM |  | significantly decreased | 7.03 µM | 0.1 µM | 0.39 µM | 0.01 µM | increased |  | significant decrease | IC50 ([12]; read-out: IC50, Sirtuin deacetylase activity; MDA-MB-231 cells, 48 h treatment, vs vehicle control): 40.6 µM; IC50 ([12]; read-out: IC50, Sirtuin deacetylase activity; ZR-75-1 cells, 48 h treatment, vs vehicle control): 11.8 µM
